Data set [1] is described as follows: Storage stability of hydroxystilbenes (residual amount by HPLC). The format is physicochemical. The conditions noted are these: for remaining at 1032 h: pH 8, left 43 days at room temperature, sample with PEG-60 hydrogenated castor oil in citric acid buffer solution, HPLC. Here is the method:
Various hydroxystilbenes shown in the following Table 1 were dissolved in ethanol, thereby preparing a 1% solution. The solution was stirred together with PEG-60 hydrogenated castor oil which was in an amount 10 times the amount of the solution with respect to 1 part of the ethanol solution. Thereafter, the resultant was diluted by 100-fold with a citric acid buffer solution, thereby preparing a sample.
pH of the sample prepared as above was regulated to be 8, and the sample was left as is for a month and a half (43 days) at room temperature. Thereafter, by means of HPLC, a residual amount of various hydroxystilbenes in each sample was determined. Analysis conditions for HPLC are as follows.
• Column: C18 5 µm, 4.6 mm x 250 mm • Flow rate: 1 ml/min • Column temperature: 40°C • Detection wavelength: 310 nm • Developing solution: acetonitrile/water = 20/80 (volume ratio, containing 0.1% by volume of acetic acid and 0.1% by volume of triethanolamine) [Table 1]

The test system of another data set is NF-κB. Put plainly: NF-κB intranuclear transition in UVB-irradiated dermal fibroblasts (Western blotting). The conditions noted are these: Homo sapiens, light or radiation study; HDF cells, UVB (20 mJ) irradiated, 6 hours; pterostilbene 5 ppm, no carotenoid; not irradiated = 100 %, irradiated without additive = 684%; read-out: Ratio of amount of NF-κB moving into nucleus. In kind it is cell-based. From the text:
NFκB is considered to be involved in skin aging at an early stage. Therefore, an NFκB intranuclear transition inhibition rate of carotenoid and pterostilbene was examined.
Normal human dermal fibroblasts (HDF cells, KURABO INDUSTRIES LTD.) were subcultured three times according to a common method, in a GlutaMax medium (D-MEM, Gibco) supplemented with 10% fetal bovine serum (FBS, Gibco). The subcultured HDF cells were caused to adhere to a container at 1,000,000 cells/25 cm^2 and put in a serum starvation state for a day. Thereafter, the HDF cells were washed with phosphate buffered saline (PBS).
The cells were irradiated with UVB (20 mJ) emitted from right above the cells, and then the medium was replaced with a medium obtained by adding 0.1% FBS to D-MEM containing the carotenoid and the pterostilbene shown in Tables 6 and 7.
6 hours after the replacement of the medium, nuclei were extracted using NucBuster (Novagen), and the amount of NF-κB moved into the nuclei was determined by Western blotting (WB) (primary antibody: NF-κB p65 Rabbit Monoclonal Antibody (Cat. #1546-1), EPITOMICS).
Moreover, in Experiment 1 and Experiment 7, for comparison, the cells were not irradiated with UVB.

On to `O=C(O)C1OC(Oc2ccc(C=Cc3cc(O)cc(O)c3)cc2)C(O)C(O)C1O` [trans-resveratol 4'-O-beta-D-glucuronide], for which the “Residual amount (%)” value in data set [1] (citric acid buffer, 1032 h, pH 8) is 73%. In data set [1], `Oc1cc(O)cc(/C=C/c2ccc(O)c(O)c2)c1` [Piceatannol] returned a fraction remaining at 1032 h of 26%. As to `COc1cc(/C=C/c2ccc(O)cc2)cc(OC)c1` [Pterostilbene, trans-1-(3,5-Diemthoxyphenyl)-2-(4-hydroxyphenyl)ethylene], in the data set on NF-κB, the activity at 5 ppm worked out at 420%. Moreover, the share remaining at 1032 h in data set [1] was 99%. Turning to `Oc1ccc(C=Cc2cc(O)cc(O)c2)cc1` [Resveratrol], the share remaining at 1032 h in data set [1] was found to be 54%. In turn, `COc1cc(/C=C/c2cc(O)cc(O)c2)ccc1O` [(E)-3,4',5-trihydroxy-3'-methoxystilbene] showed an amount remaining at 1032 h in data set [1] of 46%.

The term share remaining denotes the share of the starting amount still present when the sample was taken.
